Where two headings read alike, the source gives them in different places.
Key:
[1] = tested on: osteo-tropic subclone of the human breast CA line, MDA MB-231; details: athymic (nude) mice injected with MDA MB-231 subclone; as described in Boucharaba et al. (2006); cited from earlier work
[2] = tested on: osteo-tropic subclone of the human breast CA line, MDA MB-231; assay: Lytic bone metastasis in athymic (nude) mice; format: in vivo, mouse; details: athymic (nude) mice injected with MDA MB-231 subclone; treated for two weeks; FIG. 13
Method: Mice are tested for assessing lytic bone metastasis. Athymic (nude) mice were injected with a osteo-tropic subclone of the human breast CA line, MDA MB-231. After two weeks the bones are scanned to assess the cancer in the bone. The cancer is treated for two weeks and the lesions are imaged. […] 103, pp. 9643-9648. The results are illustrated in FIG. 13.

[3] = tested on: LPA inhibition of adenylyl cyclase activation in rat glioma C62B cells; assay: LPA-driven adenylyl cyclase inhibition in rat glioma cells (relief by antagonist); format: cell-based; details: isoproterenol-stimulated cAMP accumulation, all in a dose-dependent manner, FIG. 3
Description: FIG. 3 is a graphic representation of LPA-driven adenylyl cyclase inhibition in C6 glioma cells.
Rat glioma C62B cells accumulate cAMP in response to isoproterenol, and this stimulation of adenylyl cyclase is blocked by LPA. As shown, the LPA inhibition of adenylyl cyclase activation is relieved by addition of VPC51299, VPC52172, VPC52173, and VPC52178, all in a dose-dependent manner. Results are illustrated in FIG. 3.

[4] = tested on: Adult male Sprague Dawley rats; assay: Chronic constriction injury (CCI) model of neuropathic pain: thermal hyperalgesia and mechanical allodynia; format: in vivo, rat
Description: The chronic constriction injury (CCI) model of neuropathic pain (Bennett and Xie, Pain, 33 p 87-107 (1988)) was used to assess the efficacy of test compound VPC51299 in relieving thermal hyperalgesia and mechanical allodynia. Adult male Sprague Dawley rats were anesthetized and their sciatic nerves exposed at the level of mid-thigh. Four loose ligations of chromic gut suture were placed around the sciatic nerve and the wound was closed. For sham surgeries, the sciatic nerve was mobilized and the wound closed without ligation. The animals' responses to mechanical and thermal stimuli were assessed prior to CCI and at days 1, 3, 5, 7, and 14 after CCI.
Thermal hyperalgesia was measured using a Plantar Test Apparatus (IITC Inc, Woodland Hills, Calif.). Rats were placed on a warmed glass surface, allowed to acclimate, and a thermal stimulus was applied to the plantar surface of the hind paw. Paw withdrawal latency (PWL) is defined as the time from stimulus application to paw withdrawal. Results are illustrated in FIG. 9A.
Mechanical allodynia was measured two ways. First, a size 5.18 Von Frey monofilament (corresponding to 15.0 g.) was applied to the plantar surface of the hind paw (Touch Test Sensory Evaluator Kit from Stoelting Co., Wood Dale, Ill.). The number of paw withdrawals out of 10 three second trials was recorded. Results are illustrated in FIG. 9B. Second, the maximum withdrawal threshold was assessed using an electronic von Frey Anesthesiometer (IITC Inc, Woodland Hills, Calif.). Force was applied to the plantar surface of the hindpaw until the rat withdrew its paw. The maximum force applied to the paw before withdrawal was recorded. Results are illustrated in FIG. 9C.

Structure (SMILES): Cc1noc(-c2ccc(CSCCC(=O)O)cc2)c1NC(=O)OC(C)c1ccccc1Cl (stereo not shown) [Kil6425]
- size of lytic bone lesions in treated mice [1]: significantly smaller

Structure (SMILES): CCCCCCCCCCCCCCCC(=O)N[C@@H](/C=C/P(=O)(O)O)Cc1ccc(OCc2cc(OCC(F)(F)F)ccn2)cc1 [VPC51299, (3R)-(3-Hexadecanoylamino-4-{4-[4-(2,2,2-trifluoro-ethoxy)-pyridin-2-ylmethoxy]-phenyl}-trans-but-1-enyl)-phosphonic Acid]
- size of lytic bone lesions in treated mice [2]: significantly smaller
- relief of LPA inhibition of adenylyl cyclase activation [3]: relieved
- paw withdrawal latency (thermal stimulus), slower than vehicle treated rats ([4]; day 5, after 5 days of treatment, difference vs vehicle treated rats, Plantar Test): 3.1 s
- withdrawal threshold, higher than vehicle treated rats ([4]; day 5, after 5 days of treatment, electronic von Frey Anesthesiometer, difference vs vehicle treated rats): 4.0 g
- number of paw withdrawals (out of 10 trials), fewer than vehicle treated rats ([4]; day 5, after 5 days of treatment, size 5.18 Von Frey monofilament (15.0 g), difference vs vehicle treated rats): 3.2 times
- efficacy in relieving thermal hyperalgesia and mechanical allodynia associated with CCI ([4]; rats with sciatic nerve ligation (CCI), FIGS. 9A-9C): effective in relieving some of the thermal hyperalgesia and mechanical allodynia

Structure (SMILES): CCCCCCCCCCCC(=O)N[C@@H](/C=C/P(=O)(O)O)Cc1ccc(OCc2cc(OCC(F)(F)F)ccn2)cc1 [VPC52172, (3R)-(3-Dodecanoylamino-4-{4-[4-(2,2,2-trifluoro-ethoxy)-pyridin-2-ylmethoxy]-phenyl}-trans-but-1-enyl)-phosphonic Acid]
- relief of LPA inhibition of adenylyl cyclase activation [3]: relieved

Structure (SMILES): CCCCCCCCCC(=O)N[C@@H](/C=C/P(=O)(O)O)Cc1ccc(OCc2cc(OCC(F)(F)F)ccn2)cc1 [VPC52173, (3R)-(3-Decanoylamino-4-{4-[4-(2,2,2-trifluoro-ethoxy)-pyridin-2-ylmethoxy]-phenyl}-trans-but-1-enyl)-phosphonic Acid]
- relief of LPA inhibition of adenylyl cyclase activation [3]: relieved

Structure (SMILES): CCCCCCCC(=O)N[C@@H](/C=C/P(=O)(O)O)Cc1ccc(OCc2cc(OCC(F)(F)F)ccn2)cc1 [VPC52178, (1R)-(3-octanoylamino-4-{4-[4-(2,2,2-trifluoro-ethoxy)-pyridin-2-ylmethoxy]-phenyl}-trans-but-1-enyl)-phosphonic Acid]
- relief of LPA inhibition of adenylyl cyclase activation [3]: relieved
